Source: paper PMC9233675, “Ru(II) photocages enable precise control over enzyme activity with red light” (Nature Communications, 2022)

Columns and labels:
[1] = Stability of compounds in mouse liver microsomes; settings: for Remaining, % (NCF=60min): mouse liver microsomes, no co-factor (no NADPH); for CLint scaled / Remaining, % (T=60min) / half-life / microsomal CLint: mouse, liver microsomes
[2] = target: T1, recombinant CYP1B1 (Homo sapiens, UniProt Q16678); assay: CYP1B1 stability: thermal melt by circular dichroism
T1 sequence (Q16678 51-543 limits assumed): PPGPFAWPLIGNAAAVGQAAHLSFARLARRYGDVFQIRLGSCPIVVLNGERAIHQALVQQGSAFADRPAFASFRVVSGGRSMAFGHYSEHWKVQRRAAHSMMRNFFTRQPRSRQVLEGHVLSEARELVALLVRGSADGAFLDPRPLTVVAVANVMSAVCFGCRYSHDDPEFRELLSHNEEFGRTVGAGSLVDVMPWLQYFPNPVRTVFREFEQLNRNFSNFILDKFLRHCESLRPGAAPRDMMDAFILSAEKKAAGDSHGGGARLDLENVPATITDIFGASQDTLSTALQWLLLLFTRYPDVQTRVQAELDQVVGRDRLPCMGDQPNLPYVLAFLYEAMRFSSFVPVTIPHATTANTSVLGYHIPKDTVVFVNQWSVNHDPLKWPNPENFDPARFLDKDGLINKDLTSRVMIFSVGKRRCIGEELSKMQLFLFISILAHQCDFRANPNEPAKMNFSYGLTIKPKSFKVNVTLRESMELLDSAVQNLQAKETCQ
Procedure: Circular Dichroism (CD) was used to monitor changes in the secondary structure with increasing temperature. […] CYP1B1 was expressed and purified as reported. […] Spectra were taken scanning from 200 to 260 nm in duplicate. The temperature was increased followed by a 3 min equilibration period before spectra acquisition. The ellipticity values at 230 nm were plotted against temperature and fit to determine the Tm (Prism).

[3] = Stability of complexes at 37 °C in the dark (HPLC, UV/Vis); type: physicochemical; settings: for Stability, % remaining at 24 h: 37 °C in H2O, dark
Procedure: The stability of each complex was assessed over 24 h under aqueous conditions at 37 °C (Supplementary Figs. 12–15). […] Given the potency of the caged inhibitor, thermal stability is of critical importance, making complex 6 the preferred photocaged candidate.
Opti-MEM with 2% fetal bovine serum (right) at 37 °C in the dark over the course of 0 (blue line) to 24 h (black dashed line). Compounds were tested in triplicate (n = 3), the data for one replicate are presented. Complexes 4 and 5 slowly degraded in the experiment condition (see HPLC traces, Figures S13–14). The decrease in absorbance for complex 6 is explained by the slow aggregation of the compound in the 96-well plate.
(1 picture or pasted object on this page, not shown here)
Supplementary Figure 13. a HPLC chromatogram analysis of stability of 4 (50 µM in di-H2O) before (black dashed line, purity > 92 % ) and after incubation at 37 °C for 24 hours (red line). At 24 hours, 43 % of 4 was […]
Supplementary Figure 14. HPLC chromatogram analysis of stability of 5 (50 µM in di-H2O) before (black dashed line, purity > 97 %) and after incubation at 37 °C for 24 hours (red line). At 24 hours, 50 % of 5 was observed […]
Supplementary Figure 15. HPLC chromatogram analysis of stability of 6 (40 µM in di-H O : MeCN mixture (4:1), […]
MeCN was added to reduce the aggregation) before (black dashed line, purity > 99.5 %) and after incubation at 37 °C for 24 hours. At 24 hours, less than 2 % degradation was observed (calculated by area, detection wavelength = […]
Supplementary Figure 16. HPLC chromatogram analysis of stability of 6 (40 µM) in 5 % DMSO / di-H2O with a 100 μM GSH, b 100 μM imidazole and c acidic condition (pH = 1) after incubation at 37 °C for 72 hours. Less than […]
detection wavelength = 280 nm). […]
imidazole and c acidic condition (pH = 1) after incubation at 37 °C for 72 hours. d At 72 hours less than 7 % degradation was observed by HPLC at pH = 1 (calculated by area, detection wavelength = 280 nm). Compounds were tested in triplicate (n = 3), the data for one replicate are presented.

[4] = Kinetic solubility by UV/Vis; type: physicochemical; settings: Opti-MEM with 2% fetal bovine serum, room temperature, 3 hours; for Kinetic solubility C1: replicate 1; for Kinetic solubility C2: replicate 2; for Kinetic solubility C3: replicate 3
Procedure: Kinetic solubility was measured by UV/Vis. In this experiment, 14 μL of 10 mM DMSO stocks of complexes 4–6 were diluted in 700 μL of Opti-MEM™ with 2% fet al bovine serum and kept at room temperature for 3 hours. The solutions were then filtered using syringe-driven filters (FV12S) and concentrations were measured by UV/vis absorbance in a 96-well plate in triplicate. […]
4. Simulate in the NPT ensemble using a Berendsen thermostat and a Berendsen barostat with: […]
5. Simulate in the NPT ensemble using a Berendsen thermostat and a Berendsen barostat with: […]
6. Simulate in the NPT ensemble using a Berendsen thermostat and a Berendsen barostat with: […]

[5] = type: physicochemical
Description: Liver Weight Blood Flow Protein
(g/kg Body Weight) (mL/min/kg) (mg/g liver
Supplementary Table 7. Quantum yields of photosubstitution in different solvents.
Compound Φ(PS) 5% DMSO in H2Oa Φ(PS) Opti-MEMa Φ(PS) CH3OH […]
a Quantum yield for photosubstitution, ΦPS, in 5% DMSO in H2O and Opti-MEM, calculated by optical approach
(Fig. S8-10). b ΦPS in 5% DMSO in H2O, determined by HPLC approach. HPLC was used due to overlap in absorbance profiles for 6 and its photochemical product (Fig. S7).
Supplementary Table 8. Lipinski’s rule of five. […]
a log P was calculated by taking the logarithm of the ratio of the MLCT absorbance of each complex (4-6) in octanol to the corresponding absorbance in H2O.
1. Lameijer, L. N. et al. A Red-Light-Activated Ruthenium-Caged NAMPT Inhibitor Remains Phototoxic in Hypoxic Cancer Cells. Angew. Chem. Int. Ed. Engl. 56, 11549-11553,

Row | SMILES | Remaining, % (NCF=60min) [1] | CLint scaled [1] | Remaining, % (T=60min) [1] | half-life [1] | microsomal CLint [1] | increase of thermal stability of CYP1B1 ([2]; 10 μM compound) | Tm ([2]; recombinant CYP1B1 + 10 µM compound, no compound 47.9) | Stability, % remaining at 24 h ([3]; HPLC) | Kinetic solubility C average [4] | Kinetic solubility C1 [4] | Kinetic solubility C2 [4] | Kinetic solubility C3 [4] | log P [5] | degradation with GSH ([3]; 5 % DMSO / di-H2O, 100 μM GSH, 37 °C, 72 hours) | degradation with imidazole ([3]; 5 % DMSO / di-H2O, 100 μM imidazole, 37 °C, 72 hours) | degradation at 24 hours ([3]; 37 °C, di-H2O : MeCN mixture (4:1), HPLC)
1 | COc1ccc(/C=C/c2ccncn2)c(OC)c1 [Compound 2] | 111.5% | 3620 mL/min/kg | 0.1% | 1.51 min | 915 µL/min/mg |  |  |  |  |  |  |  |  |  |  | 
2 | COc1ccc(C=Cc2ccncc2)c(OC)c1 [Compound 3] | 137.9% | 1900 mL/min/kg | 0.1% | 2.89 min | 480 µL/min/mg | 2 °C | 50.4 +/− 0.26 °C |  |  |  |  |  |  |  |  | 
3 | COc1ccc(/C=C/c2cc[n+]([Ru-4]345([n+]6ccccc6-c6cccc([n+]63)-c3cccc[n+]34)[n+]3c(cc(C(=O)[O-])c4ccccc43)-c3cc(C(=O)[O-])c4ccccc4[n+]35)cn2)c(OC)c1 [Compound 5] |  |  |  |  |  |  |  | 50% | 112.2 µM | 113.3 µM | 110.0 µM | 113.0 µM | -0.5 |  |  | 
4 | COc1ccc(/C=C/c2cc[n+]([Ru-4]345([n+]6ccccc6-c6cccc([n+]63)-c3cccc[n+]34)[n+]3c(cc(C(=O)[O-])c4ccccc43)-c3cc(C(=O)[O-])c4ccccc4[n+]35)cc2)c(OC)c1 [Compound 6] |  |  |  |  |  |  |  | 98.6% | 36.9 µM | 33.9 µM | 38.5 µM | 38.2 µM | 0.2 | less than 2% | less than 2% | less than 2%
